Measurements: US10765670B2, “Use of anti-connexin agents for enhancing the therapeutic effect of acetylcholinesterase inhibitors” (COMMISSARIAT A L'ENERGIE ATOMIQUE ET AUX ENERGIES …, priority 2011, dated 2020)
Marks after values point to notes of the source that are not given here.

Legend:
[1] = tested on: male C57bl/6 mice; experiment: Electro-encephalographic recording of hippocampal theta activity in mice; type: in vivo; conditions: for EEG Relative power to vehicles (relative power of hippocampal theta rhythm): n=7
Procedure: Electrophysiological effects of donepezil were evaluated by analysis of hippocampal electroencephalographic activity (EEG) as described previously in WO2010/029131. Briefly, the assay is as follows:
Two groups of male C57bl/6 mice (seven mice from 4 to 5 month old and seven mice from 17 to 18 month old) were pre-implanted with bilateral hippocampal bipolar electrodes under isoflurane anaesthesia. A two-week period of recovery was realized before recordings.
Different intraperitoneal treatments were performed by circular combination of 7 mice per treatment (donepezil 0.1 and 0.3 mg/kg, meclofenamic 1 mg/kg, donepezil 0.1 mg/kg+MFA 1 mg/kg).
EEG measures were performed on different batches of awoke mice (previously implanted and tamed) by recordings two hours after injection. The spectral analysis is carried out by Fourier transform (FFT) and allows the calculation of the relative powers for each Hertz and each second. FFT data are then averaged minute by minute and reported to control solvent recording realized on the day before in strictly identical experimental conditions. The spectral powers of two hippocampal electrodes are then averaged between 3 and 12 Hertz and represented hourly.
At day 1, saline was administered intraperitoneally to “adult” or “elderly” mice (n=7), and θ-hippocampal activity was measured for two consecutive hours. On day 2, donepezil alone or in combination with MFA is injected, and θ-hippocampal activity is related to that measured on day 1.

[2] = Wagner C. et al 2007; cited from earlier work
[3] = tested on: C57bl/6 male mice, 17-18-month old; experiment: Behavioral test of working memory, T-maze spontaneous alternation (SA-task) in elderly mice; type: in vivo; conditions: for promnesiant effect (increase of total alternation, FIG. 2) / total alternation in T-maze (FIG. 2): elderly mice; for SA-task relative to vehicles (mean percentage of alternation relative to vehicles over the seven trials): 30 min before T-maze, 17-18-month old mice
Source text: The alternating sequential test is widely used to assess spatial working memory in mice (Beracochea D. J. and Jaffard R., Behav. Neurosci. 101 (1987) 187-97). Spontaneous alternation is the innate tendency of rodents to alternate their choices to enter into the compartments of arrival of a T-maze device, over successive trials. To alternate during a given trial N, the animal must remember the choice made selectively in test N−1, so the decline in alternating will reflect the phenomenon of oblivion. The response in alternating is performance measure. Sequential alternating assess more specifically the sensitivity to interference, a major factor in oblivion.
The experiment took place in a T-maze (50 cm×10 cm×25 cm). All the subjects (C57bl/6 male mice, 17-18-month old, n=9) were given 7 successive trials separated by a 90-s intertrial interval. To begin a trial, the mouse was placed in the start box for 90 s before the door to the stem was opened. When the subject entered one of the goal arms, the door to that arm was closed. The chosen arm and the time that elapsed between opening the door and the arrival to the end of the chosen arm (task achievement time) were registered. Following a 30-s confinement period in the chosen arm, the animal was removed and placed in the start box for a new trial. Between each test, the unit was cleaned with water and alcohol to avoid olfactory detection. An alternation response was considered each time the subject entered the arm opposite to the one visited on the immediately previous trial. Alternation rate was calculated taking into account the 6 successive trials, and expressed in percentage relative to the maximal alternation rate of 100% (obtained when the subject never returned into the same arm for two consecutive trials).
C57BL/6 mice of 17 to 18 months (“elderly” mice) were intraperitoneally injected with a solution of NaCl (vehicle), donepezil (DZP), meclofenamic acid (MFA) or a combination of these two latter compounds, 30 minutes before T-maze experiment.
Thirty minutes after treatment (NaCl, donepezil, MFA), “elderly” mice are placed in the T-maze device. The percentage of alternation was measured for 7 consecutive trials, 50% corresponding to a random alternation.

[4] = tested on: rodents; conditions: MFA 1 mg/kg, previously described; cited from earlier work

Compound	effect on EEG (θ-hippocampal activity) ([1]; MFA alone 1 mg/kg i.p.)	dose at which the anti-inflammatory effect is observed in vivo [2]	promnesiant effect (increase of total alternation, FIG. 2) ([3]; MFA alone 1 mg/kg i.p.)	alternation by blocks of two trials (FIG. 3) ([3]; MFA alone 1 mg/kg i.p., three blocks of trials)	effect on the electroencephalographic signal [4]	response of θ-hippocampal activity (FIG. 1) ([1]; 4-5-month old mice, donepezil 0.1 mg/kg i.p.)	response of θ-hippocampal activity (FIG. 1) ([1]; 4-5-month old mice, donepezil 0.3 mg/kg i.p.)	response of θ-hippocampal activity (FIG. 1) ([1]; 17-18-month old mice, donepezil 0.3 mg/kg i.p., second hour of recording)	EEG Relative power to vehicles (relative power of hippocampal theta rhythm) ([1]; donepezil 0.1 mg/kg intraperitoneal)	EEG Relative power to vehicles (relative power of hippocampal theta rhythm) ([1]; donepezil 0.3 mg/kg intraperitoneal)	SA-task relative to vehicles (mean percentage of alternation relative to vehicles over the seven trials) ([3]; donepezil 0.1 mg/kg i.p.) [%]	promnesiant effect (increase of total alternation, FIG. 2) ([3]; donepezil 0.1 mg/kg i.p.)	alternation by blocks of two trials (FIG. 3), memory interference ([3]; donepezil 0.1 mg/kg i.p., third block (trials 6 and 7))	SA-task relative to vehicles (mean percentage of alternation relative to vehicles over the seven trials) ([3]; donepezil 0.3 mg/kg i.p., p<0.01) [%**]	promnesiant effect (increase of total alternation, FIG. 2) ([3]; donepezil 0.3 mg/kg i.p.)	promnesiant effect (increase of total alternation, FIG. 2) ([3]; donepezil 1 mg/kg i.p.)	total alternation in T-maze (FIG. 2) ([3]; donepezil alone 0.3 mg/kg i.p.)	total alternation in T-maze (FIG. 2) ([3]; donepezil alone 1 mg/kg i.p.)
Cc1ccc(Cl)c(Nc2ccccc2C(=O)O)c1Cl [MFA, Benzoic 2-[(2,6-di-chloro-3-phenyl)amino] acid]	no effect by its own	approximately 5 mg/kg/day	no promnesiant effect significant	no significant effect	not affecting the electroencephalographic signal	–	–	–	–	–	–	–	–	–	–	–	–	–
COc1cc2c(cc1OC)C(=O)C(CC1CCN(Cc3ccccc3)CC1)C2 (stereo not drawn) [donepezil, 2,3-dihydro-5,6-dimethoxy-2-[[1-(phenylmethyl)-4-piperidinyl]methyl]-1H-i-nden-1-one]	–	–	–	–	–	do not respond significantly	do not respond significantly	an effect	1	1	35	no significant promnesiant effect	partially counteract the interference phenomenon	48	significant promnesiant effect	significant promnesiant effect	around 75%	around 75%
